{"source": "paper PMC9571063", "about": "(Molecules, 2022)", "key": {"ALK(C1156Y)": {"target": "T1, ALK(C1156Y) (Homo sapiens, UniProt Q9UM73, C1156Y)", "T1 construct": "purchased Eurofins DiscoverX KINOMEscan (scanMAX 468)", "assay": "KINOMEscan", "assay_type": "binding", "conditions": "read-out: Percent Control"}, "IGF1R": {"target": "T2, IGF1R (Homo sapiens, UniProt P08069)", "T2 construct": "purchased Eurofins DiscoverX KINOMEscan (scanMAX 468)", "T2 sequence (P08069 31-1367)": "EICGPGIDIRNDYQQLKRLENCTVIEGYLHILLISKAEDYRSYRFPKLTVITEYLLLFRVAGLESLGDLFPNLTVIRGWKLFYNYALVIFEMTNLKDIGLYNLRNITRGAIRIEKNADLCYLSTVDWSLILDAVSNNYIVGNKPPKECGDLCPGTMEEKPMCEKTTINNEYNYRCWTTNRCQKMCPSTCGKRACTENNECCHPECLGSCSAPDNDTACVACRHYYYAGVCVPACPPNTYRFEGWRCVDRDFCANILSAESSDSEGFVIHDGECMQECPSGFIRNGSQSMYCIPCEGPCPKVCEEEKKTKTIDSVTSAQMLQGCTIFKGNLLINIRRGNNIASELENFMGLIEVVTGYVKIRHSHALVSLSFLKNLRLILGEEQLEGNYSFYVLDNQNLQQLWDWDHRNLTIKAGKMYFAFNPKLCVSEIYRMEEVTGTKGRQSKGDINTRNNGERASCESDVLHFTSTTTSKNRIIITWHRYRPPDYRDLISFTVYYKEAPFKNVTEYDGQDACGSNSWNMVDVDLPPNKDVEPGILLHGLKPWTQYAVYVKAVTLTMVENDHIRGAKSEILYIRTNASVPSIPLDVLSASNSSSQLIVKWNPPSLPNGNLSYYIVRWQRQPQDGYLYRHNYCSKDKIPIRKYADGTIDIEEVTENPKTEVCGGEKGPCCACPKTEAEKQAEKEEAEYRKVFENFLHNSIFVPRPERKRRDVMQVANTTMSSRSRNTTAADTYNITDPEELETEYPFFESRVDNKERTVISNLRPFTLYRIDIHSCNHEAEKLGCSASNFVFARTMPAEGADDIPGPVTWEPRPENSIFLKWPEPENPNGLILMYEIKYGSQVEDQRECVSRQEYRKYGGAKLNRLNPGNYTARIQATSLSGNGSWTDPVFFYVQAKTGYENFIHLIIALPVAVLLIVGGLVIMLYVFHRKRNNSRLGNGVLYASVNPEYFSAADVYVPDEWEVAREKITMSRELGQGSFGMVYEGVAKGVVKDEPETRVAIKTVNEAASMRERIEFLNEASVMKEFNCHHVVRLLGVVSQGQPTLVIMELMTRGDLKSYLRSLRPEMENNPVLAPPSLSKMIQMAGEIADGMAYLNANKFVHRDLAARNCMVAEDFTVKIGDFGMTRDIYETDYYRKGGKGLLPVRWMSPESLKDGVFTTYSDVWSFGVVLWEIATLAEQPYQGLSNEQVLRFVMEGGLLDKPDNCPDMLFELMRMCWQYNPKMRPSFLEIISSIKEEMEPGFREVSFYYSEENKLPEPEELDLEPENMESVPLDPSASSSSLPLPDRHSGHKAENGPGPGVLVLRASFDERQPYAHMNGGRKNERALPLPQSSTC", "assay": "KINOMEscan", "assay_type": "binding", "conditions": "read-out: Percent Control"}, "Human skin fibroblasts": {"system": "Human skin fibroblasts", "set-up": "method as in ref 14 (a number printed in a supplementary file, which may have a reference list of its own: not looked up in the article's list)", "conditions": "DB18[a], footnote not given; read-out: Cytotoxic studies IC50 Fibroblasts; cited from earlier work"}, "FLT3": {"target": "T3, FLT3 (Homo sapiens, UniProt P36888)", "T3 construct": "purchased Eurofins DiscoverX KINOMEscan (scanMAX 468)", "assay": "KINOMEscan", "assay_type": "binding", "conditions": "read-out: Percent Control"}, "NIK": {"target": "T4, NIK (Homo sapiens, UniProt Q99558)", "T4 construct": "purchased Eurofins DiscoverX KINOMEscan (scanMAX 468)", "assay": "KINOMEscan", "assay_type": "binding", "conditions": "read-out: Percent Control"}, "NEK5": {"target": "T5, NEK5 (Homo sapiens, UniProt Q6P3R8)", "T5 construct": "purchased Eurofins DiscoverX KINOMEscan (scanMAX 468)", "assay": "KINOMEscan", "assay_type": "binding", "conditions": "read-out: Percent Control"}, "INSR": {"target": "T6, INSR (Homo sapiens, UniProt P06213)", "T6 construct": "purchased Eurofins DiscoverX KINOMEscan (scanMAX 468)", "T6 sequence (P06213 28-1382)": "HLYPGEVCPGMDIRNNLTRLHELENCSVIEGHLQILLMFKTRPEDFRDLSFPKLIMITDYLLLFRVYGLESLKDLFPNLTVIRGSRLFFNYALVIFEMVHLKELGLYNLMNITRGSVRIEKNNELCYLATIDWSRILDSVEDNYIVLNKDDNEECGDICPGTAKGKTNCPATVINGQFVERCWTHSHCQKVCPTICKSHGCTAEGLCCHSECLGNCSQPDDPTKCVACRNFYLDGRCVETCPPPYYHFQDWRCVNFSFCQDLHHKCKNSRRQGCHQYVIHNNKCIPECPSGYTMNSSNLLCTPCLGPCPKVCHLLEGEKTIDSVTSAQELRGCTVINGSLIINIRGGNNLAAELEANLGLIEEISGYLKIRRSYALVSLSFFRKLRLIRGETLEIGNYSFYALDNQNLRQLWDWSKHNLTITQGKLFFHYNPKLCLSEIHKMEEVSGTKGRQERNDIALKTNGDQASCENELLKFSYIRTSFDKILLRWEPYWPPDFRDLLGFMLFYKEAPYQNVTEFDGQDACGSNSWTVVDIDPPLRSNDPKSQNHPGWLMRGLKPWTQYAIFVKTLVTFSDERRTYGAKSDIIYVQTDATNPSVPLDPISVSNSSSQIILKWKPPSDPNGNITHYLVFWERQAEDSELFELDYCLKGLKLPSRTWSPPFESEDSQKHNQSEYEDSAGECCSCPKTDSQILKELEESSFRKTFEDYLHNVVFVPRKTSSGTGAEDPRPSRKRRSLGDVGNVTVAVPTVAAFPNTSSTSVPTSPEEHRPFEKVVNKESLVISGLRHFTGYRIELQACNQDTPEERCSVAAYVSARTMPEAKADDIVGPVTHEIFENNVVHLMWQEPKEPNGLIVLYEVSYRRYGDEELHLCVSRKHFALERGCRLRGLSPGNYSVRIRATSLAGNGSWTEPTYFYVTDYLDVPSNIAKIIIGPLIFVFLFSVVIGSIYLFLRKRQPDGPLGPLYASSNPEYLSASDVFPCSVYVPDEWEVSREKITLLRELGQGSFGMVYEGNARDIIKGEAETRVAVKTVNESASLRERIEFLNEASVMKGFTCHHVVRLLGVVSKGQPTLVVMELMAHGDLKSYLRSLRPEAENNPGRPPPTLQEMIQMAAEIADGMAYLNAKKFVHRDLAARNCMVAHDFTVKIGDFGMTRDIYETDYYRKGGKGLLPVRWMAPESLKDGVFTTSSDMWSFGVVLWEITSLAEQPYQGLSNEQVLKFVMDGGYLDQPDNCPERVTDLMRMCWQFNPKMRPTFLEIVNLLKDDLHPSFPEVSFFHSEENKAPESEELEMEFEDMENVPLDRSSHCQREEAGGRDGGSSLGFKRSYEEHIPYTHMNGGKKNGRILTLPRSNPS", "assay": "KINOMEscan", "assay_type": "binding", "conditions": "read-out: Percent Control"}, "PFPK5(P.falciparum)": {"target": "T7, PFPK5(P.falciparum) (Plasmodium falciparum, UniProt P61075)", "T7 construct": "purchased Eurofins DiscoverX KINOMEscan (scanMAX 468)", "assay": "KINOMEscan", "assay_type": "binding", "conditions": "read-out: Percent Control"}, "SNRK": {"target": "T8, SNRK (Homo sapiens, UniProt Q9NRH2)", "T8 construct": "purchased Eurofins DiscoverX KINOMEscan (scanMAX 468)", "assay": "KINOMEscan", "assay_type": "binding", "conditions": "read-out: Percent Control"}, "RIPK4": {"target": "T9, RIPK4 (Homo sapiens, UniProt P57078)", "T9 construct": "purchased Eurofins DiscoverX KINOMEscan (scanMAX 468)", "assay": "KINOMEscan", "assay_type": "binding", "conditions": "read-out: Percent Control"}, "Hs_HASPIN": {"target": "T10, Hs_HASPIN (Homo sapiens, UniProt Q8TF76)", "T10 construct": "host or cells: bacteria", "T10 sequence (Q8TF76 1-798)": "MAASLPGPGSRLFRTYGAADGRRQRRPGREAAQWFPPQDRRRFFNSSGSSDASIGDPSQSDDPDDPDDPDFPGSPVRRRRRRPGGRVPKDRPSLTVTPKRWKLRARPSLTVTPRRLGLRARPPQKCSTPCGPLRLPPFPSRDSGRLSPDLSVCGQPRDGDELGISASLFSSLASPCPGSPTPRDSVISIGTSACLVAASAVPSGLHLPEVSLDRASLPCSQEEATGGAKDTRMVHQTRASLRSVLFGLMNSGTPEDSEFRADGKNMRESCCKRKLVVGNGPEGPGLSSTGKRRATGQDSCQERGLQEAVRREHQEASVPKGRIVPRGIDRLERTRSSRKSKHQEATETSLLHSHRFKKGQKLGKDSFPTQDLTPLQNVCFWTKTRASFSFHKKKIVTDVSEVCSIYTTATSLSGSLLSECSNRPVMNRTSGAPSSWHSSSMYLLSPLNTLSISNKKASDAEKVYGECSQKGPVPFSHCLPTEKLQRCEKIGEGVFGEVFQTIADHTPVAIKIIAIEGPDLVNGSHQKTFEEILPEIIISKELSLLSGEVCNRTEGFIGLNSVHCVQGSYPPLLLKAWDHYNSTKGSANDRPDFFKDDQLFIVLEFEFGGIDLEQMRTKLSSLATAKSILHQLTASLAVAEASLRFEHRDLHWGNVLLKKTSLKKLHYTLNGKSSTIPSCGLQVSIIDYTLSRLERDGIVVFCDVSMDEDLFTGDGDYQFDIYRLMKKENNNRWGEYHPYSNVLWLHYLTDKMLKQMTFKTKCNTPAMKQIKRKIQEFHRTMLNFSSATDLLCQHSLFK", "set-up": "method as in ref 13 (a number printed in a supplementary file, which may have a reference list of its own: not looked up in the article's list)", "conditions": "DB18, cited from earlier work"}, "PRKCE": {"target": "T11, PRKCE (Homo sapiens, UniProt Q02156)", "T11 construct": "purchased Eurofins DiscoverX KINOMEscan (scanMAX 468)", "assay": "KINOMEscan", "assay_type": "binding", "conditions": "read-out: Percent Control"}, "MKK7": {"target": "T12, MKK7 (Homo sapiens, UniProt O14733)", "T12 construct": "purchased Eurofins DiscoverX KINOMEscan (scanMAX 468)", "assay": "KINOMEscan", "assay_type": "binding", "conditions": "read-out: Percent Control"}, "EPHB1": {"target": "T13, EPHB1 (Homo sapiens, UniProt P54762)", "T13 construct": "purchased Eurofins DiscoverX KINOMEscan (scanMAX 468)", "T13 sequence (P54762 18-984)": "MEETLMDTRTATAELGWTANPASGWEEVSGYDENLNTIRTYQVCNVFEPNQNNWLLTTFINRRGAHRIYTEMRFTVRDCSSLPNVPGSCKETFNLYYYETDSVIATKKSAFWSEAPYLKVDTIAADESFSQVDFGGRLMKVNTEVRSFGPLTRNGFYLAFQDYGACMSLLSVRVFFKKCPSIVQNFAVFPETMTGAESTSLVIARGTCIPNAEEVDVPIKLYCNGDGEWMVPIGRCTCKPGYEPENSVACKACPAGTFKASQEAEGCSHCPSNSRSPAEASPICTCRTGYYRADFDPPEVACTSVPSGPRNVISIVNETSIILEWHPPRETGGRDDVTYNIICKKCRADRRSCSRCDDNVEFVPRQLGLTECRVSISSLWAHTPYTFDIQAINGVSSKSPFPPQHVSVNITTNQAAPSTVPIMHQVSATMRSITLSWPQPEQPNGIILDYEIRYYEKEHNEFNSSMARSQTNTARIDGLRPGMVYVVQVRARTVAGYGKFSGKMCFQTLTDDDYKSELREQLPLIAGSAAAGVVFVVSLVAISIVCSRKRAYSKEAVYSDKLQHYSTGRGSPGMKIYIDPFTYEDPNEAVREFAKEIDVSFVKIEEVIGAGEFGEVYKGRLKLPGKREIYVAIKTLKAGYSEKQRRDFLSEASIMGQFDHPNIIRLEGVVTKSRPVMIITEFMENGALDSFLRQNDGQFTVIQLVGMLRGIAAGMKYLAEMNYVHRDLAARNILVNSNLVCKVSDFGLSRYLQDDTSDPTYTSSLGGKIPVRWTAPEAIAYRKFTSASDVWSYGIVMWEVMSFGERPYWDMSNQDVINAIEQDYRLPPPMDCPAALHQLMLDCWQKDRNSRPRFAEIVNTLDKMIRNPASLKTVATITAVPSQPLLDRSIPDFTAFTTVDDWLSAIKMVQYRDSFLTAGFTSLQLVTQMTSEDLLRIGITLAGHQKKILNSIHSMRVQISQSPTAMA", "assay": "KINOMEscan", "assay_type": "binding", "conditions": "read-out: Percent Control"}, "LATS2": {"target": "T14, LATS2 (Homo sapiens, UniProt Q9NRM7)", "T14 construct": "purchased Eurofins DiscoverX KINOMEscan (scanMAX 468)", "assay": "KINOMEscan", "assay_type": "binding", "conditions": "read-out: Percent Control"}, "CHEK1": {"target": "T15, CHEK1 (Homo sapiens, UniProt O14757)", "T15 construct": "purchased Eurofins DiscoverX KINOMEscan (scanMAX 468)", "assay": "KINOMEscan", "assay_type": "binding", "conditions": "read-out: Percent Control"}, "PIM2": {"target": "T16, PIM2 (Homo sapiens, UniProt Q9P1W9)", "T16 construct": "purchased Eurofins DiscoverX KINOMEscan (scanMAX 468)", "assay": "KINOMEscan", "assay_type": "binding", "conditions": "read-out: Percent Control"}, "FLT4": {"target": "T17, FLT4 (Homo sapiens, UniProt P35916)", "T17 construct": "purchased Eurofins DiscoverX KINOMEscan (scanMAX 468)", "T17 sequence (P35916 25-1363)": "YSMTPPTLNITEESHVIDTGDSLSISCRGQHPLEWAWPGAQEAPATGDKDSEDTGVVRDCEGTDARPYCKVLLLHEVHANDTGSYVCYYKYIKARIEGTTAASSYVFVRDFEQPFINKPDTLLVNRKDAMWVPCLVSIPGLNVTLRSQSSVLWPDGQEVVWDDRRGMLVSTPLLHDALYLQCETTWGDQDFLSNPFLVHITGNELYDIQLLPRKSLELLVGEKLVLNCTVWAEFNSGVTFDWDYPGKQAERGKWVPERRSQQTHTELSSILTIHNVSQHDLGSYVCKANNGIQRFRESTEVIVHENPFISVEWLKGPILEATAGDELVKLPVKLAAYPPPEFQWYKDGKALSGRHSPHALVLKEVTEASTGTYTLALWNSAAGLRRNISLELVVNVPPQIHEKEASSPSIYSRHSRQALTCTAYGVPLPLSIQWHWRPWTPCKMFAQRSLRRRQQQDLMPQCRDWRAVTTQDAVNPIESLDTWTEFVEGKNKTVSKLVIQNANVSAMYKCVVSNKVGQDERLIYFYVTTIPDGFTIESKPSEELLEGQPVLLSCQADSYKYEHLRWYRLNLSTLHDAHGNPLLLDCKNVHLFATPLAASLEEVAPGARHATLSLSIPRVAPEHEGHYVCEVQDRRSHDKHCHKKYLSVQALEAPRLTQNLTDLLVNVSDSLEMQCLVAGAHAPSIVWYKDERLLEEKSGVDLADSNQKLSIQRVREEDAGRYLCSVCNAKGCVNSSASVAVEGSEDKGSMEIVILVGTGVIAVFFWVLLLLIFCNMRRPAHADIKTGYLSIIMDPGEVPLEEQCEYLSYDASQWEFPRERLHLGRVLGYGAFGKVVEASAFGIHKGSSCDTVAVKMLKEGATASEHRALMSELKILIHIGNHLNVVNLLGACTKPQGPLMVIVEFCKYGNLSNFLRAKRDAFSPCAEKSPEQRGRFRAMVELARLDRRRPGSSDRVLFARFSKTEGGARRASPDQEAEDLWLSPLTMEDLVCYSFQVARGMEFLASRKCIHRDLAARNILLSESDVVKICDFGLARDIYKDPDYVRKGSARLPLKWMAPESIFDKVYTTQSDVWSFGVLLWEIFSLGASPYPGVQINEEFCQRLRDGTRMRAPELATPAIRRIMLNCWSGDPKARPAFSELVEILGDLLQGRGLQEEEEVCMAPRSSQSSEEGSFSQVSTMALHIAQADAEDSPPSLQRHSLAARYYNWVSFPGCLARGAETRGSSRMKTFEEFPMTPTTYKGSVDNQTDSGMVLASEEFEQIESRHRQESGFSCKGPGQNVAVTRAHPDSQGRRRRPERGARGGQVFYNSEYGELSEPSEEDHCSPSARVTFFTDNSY", "assay": "KINOMEscan", "assay_type": "binding", "conditions": "read-out: Percent Control"}, "PIK3CD": {"target": "T18, PIK3CD (Homo sapiens, UniProt O00329)", "T18 construct": "purchased Eurofins DiscoverX KINOMEscan (scanMAX 468)", "assay": "KINOMEscan", "assay_type": "binding", "conditions": "read-out: Percent Control"}, "CAMK1G": {"target": "T19, CAMK1G (Homo sapiens, UniProt Q96NX5)", "T19 construct": "purchased Eurofins DiscoverX KINOMEscan (scanMAX 468)", "assay": "KINOMEscan", "assay_type": "binding", "conditions": "read-out: Percent Control"}, "MYLK4": {"target": "T20, MYLK4 (Homo sapiens, UniProt Q86YV6)", "T20 construct": "purchased Eurofins DiscoverX KINOMEscan (scanMAX 468)", "assay": "KINOMEscan", "assay_type": "binding", "conditions": "read-out: Percent Control"}, "p38-gamma": {"target": "T21, p38-gamma (Homo sapiens, UniProt P53778)", "T21 construct": "purchased Eurofins DiscoverX KINOMEscan (scanMAX 468)", "assay": "KINOMEscan", "assay_type": "binding", "conditions": "read-out: Percent Control"}, "MARK2": {"target": "T22, MARK2 (Homo sapiens, UniProt Q7KZI7)", "T22 construct": "purchased Eurofins DiscoverX KINOMEscan (scanMAX 468)", "assay": "KINOMEscan", "assay_type": "binding", "conditions": "read-out: Percent Control"}, "ERK4": {"target": "T23, ERK4 (Homo sapiens, UniProt P31152)", "T23 construct": "purchased Eurofins DiscoverX KINOMEscan (scanMAX 468)", "assay": "KINOMEscan", "assay_type": "binding", "conditions": "read-out: Percent Control"}, "SLK": {"target": "T24, SLK (Homo sapiens, UniProt Q9H2G2)", "T24 construct": "purchased Eurofins DiscoverX KINOMEscan (scanMAX 468)", "assay": "KINOMEscan", "assay_type": "binding", "conditions": "read-out: Percent Control"}, "LOK": {"target": "T25, LOK (Homo sapiens, UniProt O94804)", "T25 construct": "purchased Eurofins DiscoverX KINOMEscan (scanMAX 468)", "assay": "KINOMEscan", "assay_type": "binding", "conditions": "read-out: Percent Control"}, "MELK": {"target": "T26, MELK (Homo sapiens, UniProt Q14680)", "T26 construct": "purchased Eurofins DiscoverX KINOMEscan (scanMAX 468)", "assay": "KINOMEscan", "assay_type": "binding", "conditions": "read-out: Percent Control"}, "ROS1": {"target": "T27, ROS1 (Homo sapiens, UniProt P08922)", "T27 construct": "purchased Eurofins DiscoverX KINOMEscan (scanMAX 468)", "assay": "KINOMEscan", "assay_type": "binding", "conditions": "read-out: Percent Control"}, "PIM1": {"target": "T28, PIM1 (Homo sapiens, UniProt P11309)", "T28 construct": "purchased Eurofins DiscoverX KINOMEscan (scanMAX 468)", "assay": "KINOMEscan", "assay_type": "binding", "conditions": "read-out: Percent Control"}, "DRAK1": {"target": "T29, DRAK1 (Homo sapiens, UniProt Q9UEE5)", "T29 construct": "purchased Eurofins DiscoverX KINOMEscan (scanMAX 468)", "assay": "KINOMEscan", "assay_type": "binding", "conditions": "read-out: Percent Control"}, "CAMK2A": {"target": "T30, CAMK2A (Homo sapiens, UniProt Q9UQM7)", "T30 construct": "purchased Eurofins DiscoverX KINOMEscan (scanMAX 468)", "assay": "KINOMEscan", "assay_type": "binding", "conditions": "read-out: Percent Control"}, "CAMK2D": {"target": "T31, CAMK2D (Homo sapiens, UniProt Q13557)", "T31 construct": "purchased Eurofins DiscoverX KINOMEscan (scanMAX 468)", "assay": "KINOMEscan", "assay_type": "binding", "conditions": "read-out: Percent Control"}}, "note": "Where two headings read alike, the source gives them in different places.", "data": [{"compound": "Cc1ccc(-n2cc(COc3cccc4cnc(Nc5cccc(Cl)c5)nc34)nn2)c([N+](=O)[O-])c1", "note": "[DB18]", "values": [{"measurement": "remaining binding at 1 µM", "setting": "ALK(C1156Y)", "value": 99, "unit": "%"}, {"measurement": "remaining binding at 1 µM", "setting": "IGF1R", "value": 100, "unit": "%"}, {"measurement": "IC50", "setting": "Human skin fibroblasts", "value": 21, "unit": "µM"}, {"measurement": "remaining binding at 1 µM", "setting": "FLT3", "value": 84, "unit": "%"}, {"measurement": "remaining binding at 1 µM", "setting": "NIK", "value": 86, "unit": "%"}, {"measurement": "remaining binding at 1 µM", "setting": "NEK5", "value": 100, "unit": "%"}, {"measurement": "remaining binding at 1 µM", "setting": "INSR", "value": 93, "unit": "%"}, {"measurement": "remaining binding at 1 µM", "setting": "PFPK5(P.falciparum)", "value": 100, "unit": "%"}, {"measurement": "remaining binding at 1 µM", "setting": "SNRK", "value": 100, "unit": "%"}, {"measurement": "remaining binding at 1 µM", "setting": "RIPK4", "value": 82, "unit": "%"}, {"measurement": "% of residual activity Hs_HASPIN", "setting": "Hs_HASPIN; 1 µM", "value": 96, "unit": "%"}, {"measurement": "% of residual activity Hs_HASPIN", "setting": "Hs_HASPIN; 10 µM", "value": 94, "unit": "%"}, {"measurement": "remaining binding at 1 µM", "setting": "PRKCE", "value": 100, "unit": "%"}, {"measurement": "remaining binding at 1 µM", "setting": "MKK7", "value": 100, "unit": "%"}, {"measurement": "remaining binding at 1 µM", "setting": "EPHB1", "value": 100, "unit": "%"}, {"measurement": "remaining binding at 1 µM", "setting": "LATS2", "value": 100, "unit": "%"}, {"measurement": "remaining binding at 1 µM", "setting": "CHEK1", "value": 100, "unit": "%"}, {"measurement": "remaining binding at 1 µM", "setting": "PIM2", "value": 100, "unit": "%"}, {"measurement": "remaining binding at 1 µM", "setting": "FLT4", "value": 100, "unit": "%"}, {"measurement": "remaining binding at 1 µM", "setting": "PIK3CD", "value": 100, "unit": "%"}, {"measurement": "remaining binding at 1 µM", "setting": "CAMK1G", "value": 100, "unit": "%"}, {"measurement": "remaining binding at 1 µM", "setting": "MYLK4", "value": 94, "unit": "%"}, {"measurement": "remaining binding at 1 µM", "setting": "p38-gamma", "value": 100, "unit": "%"}, {"measurement": "remaining binding at 1 µM", "setting": "MARK2", "value": 94, "unit": "%"}, {"measurement": "remaining binding at 1 µM", "setting": "ERK4", "value": 100, "unit": "%"}, {"measurement": "remaining binding at 1 µM", "setting": "SLK", "value": 100, "unit": "%"}, {"measurement": "remaining binding at 1 µM", "setting": "LOK", "value": 100, "unit": "%"}, {"measurement": "remaining binding at 1 µM", "setting": "MELK", "value": 100, "unit": "%"}, {"measurement": "remaining binding at 1 µM", "setting": "ROS1", "value": 100, "unit": "%"}, {"measurement": "remaining binding at 1 µM", "setting": "PIM1", "value": 100, "unit": "%"}, {"measurement": "remaining binding at 1 µM", "setting": "DRAK1", "value": 100, "unit": "%"}, {"measurement": "remaining binding at 1 µM", "setting": "CAMK2A", "value": 96, "unit": "%"}, {"measurement": "remaining binding at 1 µM", "setting": "CAMK2D", "value": 100, "unit": "%"}]}]}
